# Results from paper PMC5460016, “Inhibition of gelatinase B/MMP-9 does not attenuate colitis in murine models of inflammatory bowel disease” (Nature Communications, 2017).
# Key:
# [1] = competitive ELISA, plasma of DSS-treated mice, all three administration schemes
# Procedure: To ensure that therapeutic levels of peptide inhibitors A and B were attained during all three administration schemes, plasma levels were measured with competitive ELISAs as described previously.
# Supplementary figure 8: Levels of peptide inhibitors A and B in plasma of DSS-treated mice at time of sacrifice. (a) Plasma levels of peptide inhibitor A measured with ELISA in DSS-treated mice that received either peptide inhibitor A (n=19) or saline (n=9) injections for all three different administration schemes (therapeutic, prophylactic and continuous).
# (b) Similar ELISA analyses […]
# were performed for detection of peptide inhibitor B in plasma of DSS-treated mice (n=19). This […]
# similar as in Figures 9 and 10. Box plots are shown with 5-95 percentiles.
# (1 picture or pasted object on this page, not shown here)
# [2] = system: Mmp3, Mmp8, Mmp9 mRNA in colonic mouse tissue; assay: Colonic mRNA expression of Mmps (quantitative RT-PCR) after peptide inhibitor administration; format: in vivo; conditions: DSS mice
# Description: Figure 10 Relative mRNA expression of specific Mmps and Tace after administration of peptide MMP inhibitors. Relative mRNA expression measured in colonic mouse tissue after a therapeutic injection scheme (n=16) (a), a prophylactic injection scheme (n=23) (b) and continuous osmotic pump delivery (n=22) (c) of peptide inhibitors A and B. Expression levels were normalized to the control condition (water+saline) and 18S with the use of the 2-delta delta CT method. Mean values with s.e.m. are shown. Statistical analyses were performed with Mann–Whitney U tests (*P<0.05, **P≤0.01; NS, not significant). Colour codes are similar as in Figs 8 and 9.
# Snap-frozen mouse colonic fragments were mechanically homogenized with the use of Precellys 24 homogenizer (VWR, Leuven, Belgium). Total RNA was extracted according to the manufacturer's guidelines (RNeasy Mini kit, Qiagen, Hilden, Germany, #74104) and quantified with the use of a Nanodrop ND-1000 Spectrophotometer (Isogen Life Science, Temse, Belgium). cDNA was synthesized with the use of High-Capacity cDNA Reverse Transcription Kit (Applied Biosystems, Foster City, CA, USA). Mmp3, Mmp8, Mmp9 and Tace mRNA levels were analysed in duplicate on 25 ng cDNA by quantitative RT-PCR with the use of TaqMan Universal PCR Master Mix from Applied Biosystems and primer and probe sets from Integrated DNA Technologies (Leuven, Belgium; Supplementary Table 3). Data were normalized to 18S ribosomal RNA levels.
# MMP-3 = conditions: Supplementary table 2, no method in this paper, known effects, cited from earlier work
# Description: (§1) page 11: Supplementary table 2: IC50 values of peptide inhibitors A and B towards MMP -3, -8, -9 and TACE (μM). Name Peptide sequences† MMP-3 MMP-8 MMP-9 TACE Peptide inhibitor […] No inhibition 17.6 12.5 7.0 (CPU 1) Peptide inhibitor […] 7.0 0.036 0.16 15 (CPU 2) † Peptide sequences are in one-letter codes for amino acids. Pyr stands for pyridylalanine. Supplementary table 3: Primer sequences used for qRT-PCR analyses. Gene Forward primer Reverse primer Probe Mmp3 [NT] Mmp8 ...
# MMP-8 = conditions: Supplementary table 2; no method in this paper; known effects; read-out: IC50 towards MMP-8; cited from earlier work
# Description: as §1
# TACE = conditions: Supplementary table 2; no method in this paper; known effects; read-out: IC50 towards TACE; cited from earlier work
# Description: as §1
# MMP-9 = conditions: Supplementary table 2; no method in this paper; known effects; read-out: IC50 towards MMP-9; cited from earlier work
# Description: as §1
# [3] = system: C57BL/6J mice with acute DSS-induced colitis; assay: Treatment of acute DSS-induced colitis with peptide inhibitors; conditions: for severity of intestinal inflammation by histopathological analysis (histological inflammation and activity scores): all three administration schemes (therapeutic, prophylactic, osmotic pump); for body weight loss at time of killing: Mann-Whitney U
# Description: Acute and chronic dextran sodium sulphate (DSS) colitis were induced as described previously[13][39]. Acute colitis was induced in 8–10 weeks old male and female mice by oral administration of 2–3% DSS (35–50 kDa; MP Biomedicals, Illkirch, France) in the drinking water during 7 days followed by 2–3 days on normal drinking water. All mice were killed at day 9 (Fig. 1a). […] Control mice (WT and MMP-9^−/−) received normal drinking water throughout the duration of the experiment. The body weight of the mice was monitored daily or every other day in case of the acute model, whereas in the chronic model, body weight was followed every 3–4 days. Of importance, WT and MMP-9^−/− mice were co-housed (maximally 5 mice per cage) during the experiments ensuring identical environmental conditions as well as controlling for cage-related effects (for example, coprophagia and intake of food and (DSS-supplemented) drinking water). Both the acute and chronic DSS experiments were repeated three times whereby results could be replicated each time and in total 79 mice were used in the acute models and 35 mice in the chronic models. The number of mice needed was estimated based on previous experience[13] and included at least 5 mice per group to ensure adequate power of detection. […] These mice were excluded from further analyses. […] No randomization was applied before start of the experiments.
# Animals were euthanized with sodium pentobarbital (Nembutal, Ovation Pharmaceuticals Inc. Deerfield, USA). The DAI was calculated based on three parameters: loss of body weight (one point for each 5% loss of body weight), consistency of stools (normal=0, soft=2, liquid=4) and presence of gross blood in stools (0=none, 1=present)[13][39]. The colon was isolated, weighted and its length measured from the ileocecal junction to the anus. […] The macroscopic damage score was calculated based on extent of inflammation along the colon (in cm, multiplied by 2 if severe), colonic mesenterial adhesion (0=none, 1=mild, 2=severe) and colonic hyperaemia (0=none and 1=present)[13][39].
# Acute colitis was induced in male and female mice via administration of 2% DSS in the drinking water for 7 days followed by 2–4 days on normal drinking water.
# [4] = continuous osmotic pump delivery, DSS mice, versus saline
# [5] = prophylactic scheme: daily i.p. 250 μg from day 1, 2% DSS mice, versus saline
# [6] = therapeutic or prophylactic schemes (daily i.p. 250 μg), DSS mice
# [7] = therapeutic scheme: daily i.p. 250 μg from day 6, 2% DSS mice, versus saline
Substance,plasma levels of peptide inhibitor at time of sacrifice [1],IC50 (MMP-8) [µM],IC50 (TACE) [µM],IC50 (MMP-9) [µM],severity of intestinal inflammation by histopathological analysis (histological inflammation and activity scores) ([3]; DSS mice),"other colonic measurements (colon weight, colon/body weight ratio and colon weight/length ratio) [3, 4]","body weight loss [3, 5]","disease activity index (DAI) [3, 5]","macroscopic damage score [3, 6]","disease activity index (DAI) [3, 7]","body weight loss at time of killing [3, 7]",also measured
IVRRADRAAVP-GGGG-P(Pyr)CBRGE [Peptide inhibitor B],inhibitory plasma levels were indeed reached,0.036,15,0.16,did not observe a significant effect,not significantly different,no differences were observed,not significantly different,not altered,higher,significantly more body weight loss,"colonic Mmp8 and Mmp3 mRNA expression ([2]; continuous osmotic pump delivery, compared to saline): significantly higher; colonic Mmp9 mRNA expression ([2]; continuous osmotic pump delivery, compared with peptide inhibitor A or saline): significantly increased; colonic expression of Mmp9 mRNA ([2]; prophylactic scheme, compared to saline, qRT-PCR normalized to 18S): significantly increased expression of Mmp9; colonic expression of Mmp3, Mmp8 and Mmp9 mRNA ([2]; therapeutic scheme, compared to peptide inhibitor A or saline, qRT-PCR normalized to 18S): appeared to be higher; IC50 (MMP-3; read-out: IC50 towards MMP-3): 7 µM"
P(Pyr)CBRGE-GGGG-IVRRADRAAVP [Peptide inhibitor A],inhibitory plasma levels were indeed reached,17.6,7,12.5,did not observe a significant effect,not significantly different,no differences were observed,not significantly different,not altered,no difference was observed,no difference in body weight loss,"IC50 towards MMP-3 (MMP-3): No inhibition; colon length ([3]; continuous osmotic pump delivery, DSS mice, versus peptide inhibitor B or saline): significantly longer; macroscopic damage score [3, 4]: lower macroscopic damage score; body weight loss ([3]; continuous s.c. osmotic pump delivery, 30 mg kg−1 per day, DSS mice, versus peptide inhibitor B and saline): mild protection with lower loss of body weight; disease activity index (DAI) ([3]; continuous s.c. osmotic pump delivery, 30 mg kg−1 per day, DSS mice, versus peptide inhibitor B or saline): significantly lower DAI"
